One experiment has as its target T1, human TRPA1 (Homo sapiens, UniProt O75762).
T1 construct: expressed in transfected cells; host or cells: CHO cells (G-418 selection)
In words: 45Calcium uptake assay: inhibition of AITC induced cellular uptake of radioactive calcium, human TRPA1 expressing CHO cells. Type of experiment: cell-based. The settings on record: AITC 30 μM. The essentials: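 CHO cells expressing TRPA1 were preincubated 10 min with compound (0.5% DMSO final), then given AITC (30 μM human, 10 μM rat) plus 5 μCi/ml 45Ca2+ for 3 min. Lysate radioactivity measured by scintillation; IC50 obtained by nonlinear regression of % maximal response without antagonist.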

The target of another experiment is T2, rat TRPA1 (Rattus norvegicus, UniProt Q6RI86).
T2 construct: expressed in transfected cells; host or cells: CHO cells (Zeocin selection)
Kind of experiment: 45Calcium uptake assay: inhibition of AITC induced cellular uptake of radioactive calcium, rat TRPA1 expressing CHO cells. Type of experiment: cell-based. The settings on record: AITC 10 μM; for IC50: class symbols; for inhibition at 10 µM: 10.0 μM compound, read-out: rat TRPA1 Percentage inhibition at 10.0 μM; for inhibition at 1 µM: read-out: rat TRPA1 Percentage inhibition. In a few lines: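 CHO cells expressing rat or human TRPA1 were pre-treated with compound for 10 min, then given AITC (30 μM human, 10 μM rat) plus 5 μCi/ml 45Ca2+ for 3 min; final DMSO 0.5%. Lysate radioactivity was counted by scintillation. IC50 came from nonlinear regression of concentration-response curves as % of maximal response.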

A value given as a limit tells only on which side of the number the result lay.

T2 sequence (Q6RI86 whole entry): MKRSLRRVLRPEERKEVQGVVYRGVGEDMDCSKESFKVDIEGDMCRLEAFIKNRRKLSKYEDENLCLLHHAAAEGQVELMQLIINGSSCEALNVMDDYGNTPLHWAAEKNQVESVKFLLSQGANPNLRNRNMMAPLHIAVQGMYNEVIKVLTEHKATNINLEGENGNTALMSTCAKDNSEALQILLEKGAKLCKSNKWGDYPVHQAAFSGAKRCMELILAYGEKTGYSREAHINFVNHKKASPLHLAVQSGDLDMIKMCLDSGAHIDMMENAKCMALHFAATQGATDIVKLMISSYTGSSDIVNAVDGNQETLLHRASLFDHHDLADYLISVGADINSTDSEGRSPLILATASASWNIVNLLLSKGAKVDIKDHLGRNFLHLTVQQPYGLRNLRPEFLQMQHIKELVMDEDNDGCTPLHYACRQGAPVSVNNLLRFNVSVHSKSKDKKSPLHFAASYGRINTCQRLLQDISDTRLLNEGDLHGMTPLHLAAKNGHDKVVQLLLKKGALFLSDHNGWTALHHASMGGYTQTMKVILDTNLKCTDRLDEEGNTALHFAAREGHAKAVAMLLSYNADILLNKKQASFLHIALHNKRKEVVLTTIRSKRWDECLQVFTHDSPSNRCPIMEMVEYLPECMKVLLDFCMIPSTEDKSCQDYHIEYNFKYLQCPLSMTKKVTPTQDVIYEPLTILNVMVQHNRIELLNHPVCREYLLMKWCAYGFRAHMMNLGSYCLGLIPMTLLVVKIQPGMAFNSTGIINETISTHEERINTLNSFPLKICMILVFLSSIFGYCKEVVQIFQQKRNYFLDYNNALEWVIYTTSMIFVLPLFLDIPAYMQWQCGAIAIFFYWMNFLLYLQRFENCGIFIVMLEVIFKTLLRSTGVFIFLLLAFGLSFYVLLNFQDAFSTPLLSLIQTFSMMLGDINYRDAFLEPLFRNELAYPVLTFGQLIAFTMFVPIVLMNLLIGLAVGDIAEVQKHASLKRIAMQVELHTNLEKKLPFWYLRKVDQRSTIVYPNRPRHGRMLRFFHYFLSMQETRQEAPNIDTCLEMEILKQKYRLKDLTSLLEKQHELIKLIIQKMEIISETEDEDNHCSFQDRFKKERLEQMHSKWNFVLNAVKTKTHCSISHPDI
T1 sequence (O75762 whole entry): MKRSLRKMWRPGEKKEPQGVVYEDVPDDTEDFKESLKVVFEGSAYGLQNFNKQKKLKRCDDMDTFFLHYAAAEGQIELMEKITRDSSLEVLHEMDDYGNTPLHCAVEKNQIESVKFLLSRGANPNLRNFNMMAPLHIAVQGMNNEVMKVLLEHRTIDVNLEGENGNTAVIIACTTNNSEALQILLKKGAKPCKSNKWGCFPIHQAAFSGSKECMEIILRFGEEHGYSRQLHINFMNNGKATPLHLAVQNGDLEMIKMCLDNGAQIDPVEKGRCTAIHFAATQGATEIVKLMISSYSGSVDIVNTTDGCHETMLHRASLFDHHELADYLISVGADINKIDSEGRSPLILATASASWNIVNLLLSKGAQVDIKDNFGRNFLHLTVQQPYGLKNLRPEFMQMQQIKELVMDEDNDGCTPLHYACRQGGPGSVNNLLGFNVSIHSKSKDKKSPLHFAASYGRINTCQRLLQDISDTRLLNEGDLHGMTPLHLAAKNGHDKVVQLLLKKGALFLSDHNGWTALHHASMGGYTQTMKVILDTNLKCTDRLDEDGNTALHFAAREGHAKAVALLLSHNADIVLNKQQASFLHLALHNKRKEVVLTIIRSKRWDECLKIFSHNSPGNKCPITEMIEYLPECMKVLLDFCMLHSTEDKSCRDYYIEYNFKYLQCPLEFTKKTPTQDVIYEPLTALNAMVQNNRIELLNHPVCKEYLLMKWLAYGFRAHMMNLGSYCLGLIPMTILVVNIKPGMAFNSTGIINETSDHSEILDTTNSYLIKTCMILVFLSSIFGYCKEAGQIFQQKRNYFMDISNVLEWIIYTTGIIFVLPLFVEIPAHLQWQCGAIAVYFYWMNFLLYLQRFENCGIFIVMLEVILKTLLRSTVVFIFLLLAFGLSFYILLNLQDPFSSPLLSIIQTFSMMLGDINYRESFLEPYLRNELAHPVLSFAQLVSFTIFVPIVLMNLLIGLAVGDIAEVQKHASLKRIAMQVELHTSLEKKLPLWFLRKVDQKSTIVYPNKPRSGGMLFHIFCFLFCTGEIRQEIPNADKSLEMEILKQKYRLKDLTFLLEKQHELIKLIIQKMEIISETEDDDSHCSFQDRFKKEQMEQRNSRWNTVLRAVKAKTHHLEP

As for `Cc1oc2c(c1CC(=O)Nc1nc(-c3ccc(C(F)(F)F)c(F)c3)cs1)c(=O)n(C)c(=O)n2C` [Example 59, N1-{4-[3-Fluoro-4-(trifluoromethyl)phenyl]-1,3-thiazol-2-yl}-2-(1,3,6-trimethyl-2,4-dioxo-1,2,3,4-tetrahydrofuro[2,3-d]pyrimidin-5-yl)acetamide], the half-inhibitory concentration (IC50) at human TRPA1 (class symbols) is under 0.05 µM; on rat TRPA1, 0.05 to 0.1 µM.

In the case of `Cc1oc2c(c1CC(=O)Nc1nc(-c3ccc(C(F)(F)F)cc3F)cs1)c(=O)n(C)c(=O)n2C` [Example 60, N1-{-4-(2-Fluoro-4-(trifluoromethyl)phenyl]-1,3-thiazol-2-yl}-2-(1,3,6-trimethyl-2,4-dioxo-1,2,3,4-tetrahydrofuro[2,3-d]pyrimidin-5-yl)acetamide], the half-inhibitory concentration (IC50) at human TRPA1 (class symbols) is under 0.05 µM. Moreover, at rat TRPA1, the inhibition at 10 µM stood at 99.7%, the inhibition at 1 µM worked out at 99.3% and the IC50 fell in the range of 0.05 to 0.1 µM.

Regarding `Cc1oc2c(c1CC(=O)Nc1nc(-c3cccc(C(F)(F)F)c3F)cs1)c(=O)n(C)c(=O)n2C` [Example 61, N1-{4-[2-Fluoro-3-(trifluoromethyl)phenyl]-1,3-thiazol-2-yl}-2-(1,3,6-trimethyl-2,4-dioxo-1,2,3,4-tetrahydrofuro[2,3-d]pyrimidin-5-yl)acetamide], the IC50 on human TRPA1 (class symbols) and on rat TRPA1 was under 0.05 µM throughout.

`Cc1oc2c(c1CC(=O)Nc1nc(-c3cc(F)cc(C(F)(F)F)c3)cs1)c(=O)n(C)c(=O)n2C` [Example 62, N1-{4-[3-Fluoro-5-(trifluoromethyl)phenyl]-1,3-thiazol-2-yl}-2-(1,3,6-trimethyl-2,4-dioxo-1,2,3,4-tetrahydrofuro[2,3-d]pyrimidin-5-yl)acetamide]: the IC50 at human TRPA1 (class symbols) and on rat TRPA1 was under 0.05 µM in each case.

`Cc1oc2c(c1CC(=O)Nc1nc(-c3cc(C(F)(F)F)ccc3F)cs1)c(=O)n(C)c(=O)n2C` [Example 63, N1-{4-[2-Fluoro-5-(trifluoromethyl)phenyl]-1,3-thiazol-2-yl}-2-(1,3,6-trimethyl-2,4-dioxo-1,2,3,4-tetrahydrofuro[2,3-d]pyrimidin-5-yl)acetamide]: at human TRPA1 (class symbols), the IC50 was 0.05 to 0.1 µM. For the same molecule, on rat TRPA1, the inhibition at 10 µM worked out at 99.8% and the inhibition at 1 µM is 97.6%.

As for `Cc1oc2c(c1CC(=O)Nc1nc(-c3ccc(Cl)c(C(F)(F)F)c3)cs1)c(=O)n(C)c(=O)n2C` [Example 64, N1-{4-[4-Chloro-3-(trifluoromethyl)phenyl]-1,3-thiazol-2-yl}-2-(1,3,6-trimethyl-2,4-dioxo-1,2,3,4-tetrahydrofuro[2,3-d]pyrimidin-5-yl)acetamide], the IC50 at human TRPA1 (class symbols) and at rat TRPA1 was under 0.05 µM in each case.

For the molecule `Cc1oc2c(c1CC(=O)Nc1nc(-c3cc(Cl)cc(C(F)(F)F)c3)cs1)c(=O)n(C)c(=O)n2C` [Example 65, N1-{4-[3-Chloro-5-(trifluoromethyl)phenyl]-1,3-thiazol-2-yl}-2-(1,3,6-trimethyl-2,4-dioxo-1,2,3,4-tetrahydrofuro[2,3-d]pyrimidin-5-yl)acetamide], on human TRPA1 (class symbols), the 50% inhibitory concentration (IC50) is under 0.05 µM. For the same molecule, at rat TRPA1, the inhibition at 10 µM was found to be 99.8%, the inhibition at 1 µM was 99.8% and the IC50 was 0.05 to 0.1 µM.

For `Cc1oc2c(c1CC(=O)Nc1nc(-c3ccc(C(F)(F)F)c(Cl)c3)cs1)c(=O)n(C)c(=O)n2C` [Example 66, N1-{4-[3-Chloro-4-(trifluoromethyl)phenyl]-1,3-thiazol-2-yl}-2-(1,3,6-trimethyl-2,4-dioxo-1,2,3,4-tetrahydrofuro[2,3-d]pyrimidin-5-yl)acetamide], the inhibition at 1 µM on human TRPA1 (1.0 μM compound, read-out: human TRPA1 Percentage inhibition at 1.0 μM) amounted to 99.4%; on rat TRPA1, 99.8%. Also, the inhibition at 10 µM at human TRPA1 (10.0 μM compound, read-out: human TRPA1 Percentage inhibition at 10.0 μM) stood at 99.8%; at rat TRPA1 it was 98.5%.

On to `Cc1oc2c(c1CC(=O)Nc1nc(-c3ccc(OC(F)(F)F)c(F)c3)cs1)c(=O)n(C)c(=O)n2C` [Example 67, N1-{4-[3-Fluoro-4-(trifluoromethoxy)phenyl]-1,3-thiazol-2-yl}-2-(1,3,6-trimethyl-2,4-dioxo-1,2,3,4-tetrahydrofuro[2,3-d]pyrimidin-5-yl)acetamide], for which the half-inhibitory concentration (IC50) at human TRPA1 (class symbols) and on rat TRPA1 was under 0.05 µM throughout.

Turning to `Cc1oc2c(c1CC(=O)Nc1nc(-c3ccc(F)c(OC(F)(F)F)c3)cs1)c(=O)n(C)c(=O)n2C` [Example 68, N1-{4-[4-Fluoro-3-(trifluoromethoxy)phenyl]-1,3-thiazol-2-yl}-2-(1,3,6-trimethyl-2,4-dioxo-1,2,3,4-tetrahydrofuro[2,3-d]pyrimidin-5-yl)acetamide], the concentration for half-maximal inhibition (IC50) on human TRPA1 (class symbols) and on rat TRPA1 was under 0.05 µM in each case.

For `Cc1oc2c(c1CC(=O)Nc1nc(-c3ccc(Cl)c(OC(F)(F)F)c3)cs1)c(=O)n(C)c(=O)n2C` [Example 69, N1-{4-[4-Chloro-3-(trifluoromethoxy)phenyl]-1,3-thiazol-2-yl}-2-(1,3,6-trimethyl-2,4-dioxo-1,2,3,4-tetrahydrofuro[2,3-d]pyrimidin-5-yl)acetamide], the half-inhibitory concentration (IC50) on human TRPA1 (class symbols) and at rat TRPA1 was under 0.05 µM in each case.

As to `Cc1oc2c(c1CC(=O)Nc1nc(-c3ccc(OC(F)(F)F)c(Cl)c3)cs1)c(=O)n(C)c(=O)n2C` [Example 70, N1-{4-[3-Chloro-4-(trifluoromethoxy)phenyl]-1,3-thiazol-2-yl}-2-(1,3,6-trimethyl-2,4-dioxo-1,2,3,4-tetrahydrofuro[2,3-d]pyrimidin-5-yl)acetamide], the concentration for half-maximal inhibition (IC50) at human TRPA1 (class symbols) and at rat TRPA1 was under 0.05 µM in each case.

For the molecule `Cc1oc2c(c1CC(=O)Nc1nc(-c3cc(Cl)cc(OC(F)(F)F)c3)cs1)c(=O)n(C)c(=O)n2C` [Example 71], the IC50 on human TRPA1 (class symbols) is under 0.05 µM; at rat TRPA1 it was 0.05 to 0.1 µM.

Take `Cc1oc2c(c1CC(=O)Nc1nc(-c3ccc(OC(F)F)c(Cl)c3)cs1)c(=O)n(C)c(=O)n2C` [Example 72, N1-{4-[3-Chloro-4-(difluoromethoxy)phenyl]-1,3-thiazol-2-yl}-2-(1,3,6-trimethyl-2,4-dioxo-1,2,3,4-tetrahydrofuro[2,3-d]pyrimidin-5-yl)acetamide]: the half-inhibitory concentration (IC50) on human TRPA1 (class symbols) is under 0.05 µM. For the same molecule, on rat TRPA1, the inhibition at 10 µM was 100%, the inhibition at 1 µM is 100% and the 50% inhibitory concentration (IC50) is over 0.1 µM.

As for `Cc1oc2c(c1CC(=O)Nc1nc(-c3ccc(OCC(F)(F)F)c(F)c3)cs1)c(=O)n(C)c(=O)n2C` [Example 73, N1-{4-[3-Fluoro-4-(2,2,2-trifluoroethoxy)phenyl]-1,3-thiazol-2-yl}-2-(1,3,6-trimethyl-2,4-dioxo-1,2,3,4-tetrahydrofuro[2,3-d]pyrimidin-5-yl)acetamide], the IC50 at human TRPA1 (class symbols) is under 0.05 µM. In addition, on rat TRPA1, the inhibition at 10 µM came to 100% and the inhibition at 1 µM is 100%.

On to `Cc1oc2c(c1CC(=O)Nc1nc(-c3ccc(OCC(F)(F)F)c(Cl)c3)cs1)c(=O)n(C)c(=O)n2C` [Example 74, N1-{4-[3-Chloro-4-(2,2,2-trifluoroethoxy)phenyl]-1,3-thiazol-2-yl}-2-(1,3,6-trimethyl-2,4-dioxo-1,2,3,4-tetrahydrofuro[2,3-d]pyrimidin-5-yl)acetamide], for which the half-inhibitory concentration (IC50) on human TRPA1 (class symbols) was under 0.05 µM. Also, on rat TRPA1, the inhibition at 10 µM was 100%, the inhibition at 1 µM amounted to 100% and the IC50 is under 0.05 µM.

On to `Cc1oc2c(c1CC(=O)Nc1nc(-c3cc(F)c(F)cc3F)cs1)c(=O)n(C)c(=O)n2C` [Example 75, N1-[4-(2,4,5-Trifluorophenyl)-1,3-thiazol-2-yl]-2-(1,3,6-trimethyl-2,4-dioxo-1,2,3,4-tetrahydrofuro[2,3-d]pyrimidin-5-yl)acetamide], for which the IC50 on human TRPA1 (numeric values) is 0.0185 µM; at rat TRPA1, 0.05 to 0.1 µM.

As usually defined, the IC50 is the concentration that inhibits the measured activity by half. One may read the inhibition as the drop in the measured response relative to a control, in per cent.
